Values of other authors as cited in US9623047B2, “Composition and method for improving gastrointestinal health of equine” (Photo Finish Supplements, LLC, priority 2012, dated 2017).

Key:
[1] = test system: tooth pulp cells
[2] = test system: tooth pulp and periapical tissue; settings: protective barrier in dental repair and treatment

[Ca+2].[OH-].[OH-] [Ca(OH)2, calcium hydroxide]
DNA synthesis of tooth pulp cells [1]: increase | anti-microbial action [2]: powerful anti-microbial action | effect on regrowth of damaged tissue [2]: significant stimulatory effect
